These results are taken from publication PMC12292628, “Inhibitory Effects of 3-(4-Hydroxy-3-methoxyphenyl) Propionic Acid on Amyloid β-Peptide Aggregation In Vitro” (Biomedicines, 2025).

This assay has as its target T1, Aβ42 (amyloid-β protein) (Homo sapiens, UniProt P05067).
T1 construct: gene APP; synthetic Aβ42 peptide, low-molecular-weight (LMW, monomeric) Aβ42
Put plainly: ThT fluorescence aggregation assay with purified LMW Aβ[…] (no seeds); electron microscopy. In kind it is biochemical.

In general, EC50 refers to the midpoint of the concentration-response curve.

T1 sequence (P05067 672-713 limits assumed): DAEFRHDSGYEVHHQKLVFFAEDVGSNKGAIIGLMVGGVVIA

In turn, `COc1cc(CCC(=O)O)ccc1O` [HMPA, 3-(4-Hydroxy-3-methoxyphenyl) propionic acid] had an EC50 of 6.37 mM.
